Measurements taken from PMC6286365 (Scientific Reports, 2018).
Read-outs that look alike come from different tables or passages of the source.

Assays:
nSMase2 [1] = settings: cited from earlier work
[2] = cited from earlier work
[3] = cited from earlier work; remark: listed apart in the source
nSMase2 [4] = test system: nSMase2; set-up: method as in PMID 28377412; settings: co-injection with IL-1β; cited from earlier work
human nSMase2 = molecular target: T1, human nSMase2 (Homo sapiens, UniProt Q9NY59); assay: biochemical
T1 sequence (Q9NY59 1-655): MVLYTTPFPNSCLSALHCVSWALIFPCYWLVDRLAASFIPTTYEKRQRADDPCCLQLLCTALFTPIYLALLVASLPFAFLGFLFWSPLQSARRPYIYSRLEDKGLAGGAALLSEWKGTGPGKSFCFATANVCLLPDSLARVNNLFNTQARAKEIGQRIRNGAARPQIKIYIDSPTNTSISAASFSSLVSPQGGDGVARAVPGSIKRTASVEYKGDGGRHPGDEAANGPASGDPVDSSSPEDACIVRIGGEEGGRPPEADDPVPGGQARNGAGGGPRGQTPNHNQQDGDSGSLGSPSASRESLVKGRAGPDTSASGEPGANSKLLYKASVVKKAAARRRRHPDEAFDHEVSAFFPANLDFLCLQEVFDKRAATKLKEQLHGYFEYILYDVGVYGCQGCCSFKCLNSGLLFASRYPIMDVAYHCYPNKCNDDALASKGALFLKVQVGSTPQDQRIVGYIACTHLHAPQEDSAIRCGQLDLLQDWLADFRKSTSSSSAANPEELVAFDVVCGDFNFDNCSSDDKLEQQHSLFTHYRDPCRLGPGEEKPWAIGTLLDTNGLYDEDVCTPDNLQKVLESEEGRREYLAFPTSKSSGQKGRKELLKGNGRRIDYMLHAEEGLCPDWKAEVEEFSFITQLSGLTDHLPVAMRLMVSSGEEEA

primary astrocytes = assay: Inhibition of EV release from primary astrocytes (FBS withdrawal, nanoparticle tracking); type: cell-based, rat; settings: 2 h treatment, dose range of concentrations
Method: (§1) Independent laboratories have shown that pharmacological and genetic inhibition of nSMase2 blocks EV secretion from glial cells. […] Two hours after treatment, EVs were isolated from the media and quantified by nanoparticle tracking analysis. […] Cells were fixed and immunofluorescence labeling for GFAP was performed.
(§2) Media was collected after 2 h incubation and centrifuged at 2700 × g for 15 min at 4 °C. Supernatant was collected and the number of extracellular vesicles (EVs) was quantified using ZetaView Nanoparticle Tracker. The mean concentration of EVs/mL (±SEM) was calculated from 4 replicate experiments. […] Astrocytes grown in complete medium were used as no treatment control. Cells were fixed and stained with anti-GFAP antibody (1:500, Sigma). Fluorescence intensity was measured using Image J. (C) Quantitation of fluorescence in (B). Bar graph represents background corrected mean fluorescence intensity measured from 100 astrocytes per condition. Error bars represent standard error of mean. One-way ANOVA followed by Tukey’s posthoc test was performed.
Potential inhibition of test compounds on EV release from primary astrocytes was carried out as previously described (Dickens et al., 2017). Briefly, rat primary astrocytes were seeded onto 6-well plates at a density of 20,000 cells/well. Twenty-four hours after seeding, astrocytes were washed with PBS and the medium changed to media without FBS. Absence of FBS mimics a trophic factor withdrawal stimulus causing EVs to be released from astrocytes via an nSMase2-dependent pathway. […] The supernatant was collected and the number of EVs quantified using ZetaView Nanoparticle Tracker (Particle Metrix GmBH, Meerbusch, Germany) and the corresponding ZetaVeiw software (8.03.04.01). Nanosphere size standard 100 nm (Thermo Scientific) was used to calibrate the instrument prior to sample readings. […] For each sample 1 mL of the supernatant was injected into the sample-carrier cell and the particle count measured at 5 positions, with 2 cycles of reading per position. […] Mean concentration of EVs/mL (±SEM) was calculated from 4 replicates.

Rat primary astrocytes = assay: Astrocyte activation, GFAP immunofluorescence (+/-) serum deprivation; type: cell-based; settings: 10 μM, 2 h
Method: as §1, §2

GFAP-GFP mice = assay: Striatal IL-1β brain inflammation model: GFP-labeled astrocyte-derived EVs in plasma; type: in vivo, mouse; settings: 10 mg/kg IP 0.5 h before IL-1β, 2 h post IL-1β
Method: As we have previously shown[11],[18], striatal injection of IL-1β in mice expressing GFP-GFAP in astroglia triggers a release of GFP-labelled EVs that rapidly enter into plasma, resulting in cytokine upregulation in liver and peripheral immune cell migration into brain[11]. […] There were two groups of mice: the first group was sacrificed 2 h after IL-1β administration by heart puncture, and GFP-labeled circulating EVs were measured with liver cytokines. […] Counting of astrocyte-released EV (GFP+) from blood and liver cytokine analysis was conducted by single injection of DPTIP. Although release of EVs from astrocytes can be initiated immediately after intracranial injection of IL-1β, infiltration of neutrophils in brain parenchyma occurred 12h-24h after the IL-1β injection. […] Western analysis using the isolated exosomal fraction confirmed the presence of CD63 (transmembrane protein), TSG101 (cytosolic protein) and Flotilin-1 (lipid raft associated protein), commonly used EV markers[19],[20]. The GFP signal was an indication that these EVs originated in brain[11] while lack of mitofilin and α-actinin signals indicated the vesicles were not of mitochondrial[21] or cytoskeletal[22] origin respectively (Fig. 6B).
Compounds were given 0.5 h before IL-1β dosing. One group of mice was sacrificed 2 h after IL-1β administration to determine effects of the various treatments on extracellular vesicles (EVs) releases from brain and liver cytokine analysis. […] (C) Liver cytokine levels under different treatments as measured by qRT-PCR of RNA isolated from fresh frozen liver tissue. Samples were analyzed in triplicate. **p < 0.01 and *p < 0.05 compared to saline control; ^##p < 0.01 and ^#p < 0.05 compared to IL1-β group. (D) Neutrophil levels in brain as measured by immunohistochemistry using coronal brain sections and Ly6b antibody. (E) Quantitation of (D); **p < 0.01 compared to saline control; ^##p < 0.01 compared to IL1-β group. […]

For `O=c1[nH]c(=S)[nH]c(-c2ccccc2)c1Cc1c(O)ccc2ccccc12` [Cambinol], the IC50 (nSMase2 [1]) is listed as […], the metabolic stability [2] is listed as “metabolically unstable” and the “in vivo pharmacokinetic profile” value [3] is listed as “poor in vivo pharmacokinetic profile”.
`COc1ccc(S(=O)(=O)N(C(=O)C(C)C)c2ccc3oc(=O)sc3c2)cc1` [MLS000521532] showed an IC50 (human nSMase2) of 10 µM.
With `COc1ccc(NC2CCCN(C(=O)CCc3ccccc3F)C2)cc1` (centres unmarked) [MLS001002546] the IC50 (human nSMase2) was 10 µM.
In the case of `COc1cc(O)c(C(=O)O)c(-c2cc(O)c(O)cc2C)c1` [altenusin], the “effect on neutrophil infiltration into brain parenchyma” value (nSMase2 [4]) is given as “suppress neutrophil infiltration”.
With `COc1cc(OC)cc(-c2nc(-c3cccs3)c(-c3ccccc3)[nH]2)c1` [des-hydroxyl analog] the “effect on EV release from primary astrocytes” value (primary astrocytes; listed as des hydroxyl inactive analog of DPTIP) was “did not inhibit EV release”, the “effect on EV release from primary astrocytes” value (primary astrocytes; listed as inactive analog) was “no effect on EV release” and the “effect on GFAP levels without serum starvation” value (Rat primary astrocytes; no serum starvation) was “did not change GFAP levels”. For the same molecule, the “effect on astrocyte activation (GFAP) in response to serum starvation” value (Rat primary astrocytes; with serum deprivation) was “failed to prevent astrocyte activation”, the “effect on IL-1β-induced EV release” value (GFAP-GFP mice) was “no difference” and the “effect on IL-1β-induced EV release” value (GFAP-GFP mice; listed as inactive analog) was “no statistically significant effect”.
